Assay [1] addresses T1, Tyrosine-protein phosphatase non-receptor type 1 (Homo sapiens, UniProt P18031).
T1 sequence (P18031 whole entry): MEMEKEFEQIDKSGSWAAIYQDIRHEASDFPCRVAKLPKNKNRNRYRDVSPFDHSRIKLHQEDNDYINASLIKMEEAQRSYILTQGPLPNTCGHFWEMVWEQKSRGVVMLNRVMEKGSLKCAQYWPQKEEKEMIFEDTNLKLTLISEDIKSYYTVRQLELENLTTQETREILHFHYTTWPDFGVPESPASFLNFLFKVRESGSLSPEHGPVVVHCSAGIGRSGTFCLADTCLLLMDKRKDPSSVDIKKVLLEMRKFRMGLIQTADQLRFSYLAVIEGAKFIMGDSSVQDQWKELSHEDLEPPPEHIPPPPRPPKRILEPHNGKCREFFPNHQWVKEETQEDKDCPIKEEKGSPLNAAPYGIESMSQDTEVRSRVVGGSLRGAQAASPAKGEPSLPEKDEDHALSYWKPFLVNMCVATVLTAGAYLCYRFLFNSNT
Put plainly: Inhibition of human protein-tyrosine phosphatase 1B.

Assay [2] deals with T2, Low molecular weight phosphotyrosine protein phosphatase (Homo sapiens, UniProt P24666).
T2 sequence (P24666 whole entry): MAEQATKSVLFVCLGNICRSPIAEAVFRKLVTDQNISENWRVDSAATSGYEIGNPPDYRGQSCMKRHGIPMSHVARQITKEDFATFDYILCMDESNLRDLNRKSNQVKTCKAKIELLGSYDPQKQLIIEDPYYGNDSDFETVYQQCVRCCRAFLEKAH
The assay is described as follows: Inhibition of human low molecular weight Protein-tyrosine phosphatase IF1.

Assay [3] addresses T2, Low molecular weight phosphotyrosine protein phosphatase. The assay is described as follows: Inhibition of human low molecular weight Protein-tyrosine phosphatase IF2.
Assay [4] has as its target T3, Low molecular weight phosphotyrosine protein phosphatase (Saccharomyces cerevisiae S288c, UniProt P40347).
T3 sequence (P40347 whole entry): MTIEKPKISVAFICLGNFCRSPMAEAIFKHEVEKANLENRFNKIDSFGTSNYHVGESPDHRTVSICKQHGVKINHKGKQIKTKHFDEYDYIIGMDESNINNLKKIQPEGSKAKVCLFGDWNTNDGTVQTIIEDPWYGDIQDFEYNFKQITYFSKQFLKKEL
The assay is described as follows: Inhibition of Saccharomyces cerevisiae low molecular weight Protein-tyrosine phosphatase Ltp1.

For assay [5], the target named is T4, Tyrosine-protein phosphatase non-receptor type 2 (Homo sapiens, UniProt P17706).
T4 sequence (P17706 whole entry): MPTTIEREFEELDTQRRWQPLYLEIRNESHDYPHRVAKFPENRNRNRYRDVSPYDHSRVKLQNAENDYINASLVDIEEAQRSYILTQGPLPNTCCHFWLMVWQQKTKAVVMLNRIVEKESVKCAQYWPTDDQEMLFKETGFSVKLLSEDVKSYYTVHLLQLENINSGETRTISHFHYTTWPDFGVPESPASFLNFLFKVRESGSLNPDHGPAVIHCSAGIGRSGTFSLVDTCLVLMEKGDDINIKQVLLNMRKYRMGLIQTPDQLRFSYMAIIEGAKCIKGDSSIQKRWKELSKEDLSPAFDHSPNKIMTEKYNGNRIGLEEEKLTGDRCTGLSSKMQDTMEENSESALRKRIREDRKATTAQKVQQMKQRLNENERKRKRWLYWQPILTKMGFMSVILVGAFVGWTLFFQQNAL
Put plainly: Inhibition of human T cell protein-tyrosine phosphatase. The class given is cell-based.

The target of assay [6] is Receptor-type tyrosine-protein phosphatase F (Homo sapiens, UniProt P10586). Put plainly: Inhibition of human leukocyte antigen related protein-tyrosine phosphatase.
Sequence of Receptor-type tyrosine-protein phosphatase F (P10586 whole entry): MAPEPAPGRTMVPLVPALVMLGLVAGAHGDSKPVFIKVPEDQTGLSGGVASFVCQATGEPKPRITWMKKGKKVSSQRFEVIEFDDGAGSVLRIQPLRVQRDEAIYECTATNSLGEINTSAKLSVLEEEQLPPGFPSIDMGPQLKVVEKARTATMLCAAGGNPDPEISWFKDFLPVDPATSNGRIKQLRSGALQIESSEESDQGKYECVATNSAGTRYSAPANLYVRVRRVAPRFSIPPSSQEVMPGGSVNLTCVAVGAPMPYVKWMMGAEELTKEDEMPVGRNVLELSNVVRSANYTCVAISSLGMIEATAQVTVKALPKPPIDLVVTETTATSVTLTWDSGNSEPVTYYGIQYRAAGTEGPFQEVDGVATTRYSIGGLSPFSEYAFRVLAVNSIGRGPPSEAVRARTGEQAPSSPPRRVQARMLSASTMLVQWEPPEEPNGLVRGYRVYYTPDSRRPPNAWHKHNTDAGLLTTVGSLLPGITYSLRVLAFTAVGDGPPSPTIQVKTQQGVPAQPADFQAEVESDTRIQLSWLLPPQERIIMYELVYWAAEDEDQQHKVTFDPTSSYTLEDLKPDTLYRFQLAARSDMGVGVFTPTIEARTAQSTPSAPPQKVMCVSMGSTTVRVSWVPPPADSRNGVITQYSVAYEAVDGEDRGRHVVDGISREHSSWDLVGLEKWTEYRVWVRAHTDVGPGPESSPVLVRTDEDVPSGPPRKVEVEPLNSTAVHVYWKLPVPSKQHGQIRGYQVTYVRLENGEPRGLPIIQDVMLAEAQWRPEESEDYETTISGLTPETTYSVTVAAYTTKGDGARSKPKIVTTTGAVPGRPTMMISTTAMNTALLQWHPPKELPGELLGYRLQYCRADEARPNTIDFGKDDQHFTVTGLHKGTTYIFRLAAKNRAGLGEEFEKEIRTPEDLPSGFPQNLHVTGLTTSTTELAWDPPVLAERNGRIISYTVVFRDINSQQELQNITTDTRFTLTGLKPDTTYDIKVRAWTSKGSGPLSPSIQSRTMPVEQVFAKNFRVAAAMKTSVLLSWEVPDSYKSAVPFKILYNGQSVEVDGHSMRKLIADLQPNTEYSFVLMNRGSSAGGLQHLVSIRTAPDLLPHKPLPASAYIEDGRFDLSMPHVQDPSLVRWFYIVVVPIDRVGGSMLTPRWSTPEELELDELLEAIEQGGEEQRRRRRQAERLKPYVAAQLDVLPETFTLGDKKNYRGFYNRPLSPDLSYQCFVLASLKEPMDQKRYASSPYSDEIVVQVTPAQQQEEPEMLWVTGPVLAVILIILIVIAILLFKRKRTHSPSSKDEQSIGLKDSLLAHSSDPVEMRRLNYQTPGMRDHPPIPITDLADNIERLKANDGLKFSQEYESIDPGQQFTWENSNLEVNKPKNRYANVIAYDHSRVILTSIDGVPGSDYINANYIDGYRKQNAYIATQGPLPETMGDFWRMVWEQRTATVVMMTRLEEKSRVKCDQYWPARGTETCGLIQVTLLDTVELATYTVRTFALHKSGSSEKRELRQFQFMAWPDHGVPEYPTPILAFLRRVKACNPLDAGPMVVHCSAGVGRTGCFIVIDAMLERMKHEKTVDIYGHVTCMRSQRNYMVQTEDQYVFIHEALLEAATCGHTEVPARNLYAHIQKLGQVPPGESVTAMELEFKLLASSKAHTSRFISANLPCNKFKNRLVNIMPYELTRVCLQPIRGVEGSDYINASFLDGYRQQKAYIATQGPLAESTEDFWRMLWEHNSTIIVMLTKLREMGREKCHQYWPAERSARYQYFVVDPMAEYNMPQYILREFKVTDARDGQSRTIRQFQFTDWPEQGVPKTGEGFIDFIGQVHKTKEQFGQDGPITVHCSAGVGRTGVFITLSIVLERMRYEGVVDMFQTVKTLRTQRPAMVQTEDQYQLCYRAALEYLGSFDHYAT
The target in assay [7] is Receptor-type tyrosine-protein phosphatase beta (Homo sapiens, UniProt P23467). The assay is described as follows: Inhibition of human protein-tyrosine phosphatase beta.
Sequence of Receptor-type tyrosine-protein phosphatase beta (P23467 whole entry): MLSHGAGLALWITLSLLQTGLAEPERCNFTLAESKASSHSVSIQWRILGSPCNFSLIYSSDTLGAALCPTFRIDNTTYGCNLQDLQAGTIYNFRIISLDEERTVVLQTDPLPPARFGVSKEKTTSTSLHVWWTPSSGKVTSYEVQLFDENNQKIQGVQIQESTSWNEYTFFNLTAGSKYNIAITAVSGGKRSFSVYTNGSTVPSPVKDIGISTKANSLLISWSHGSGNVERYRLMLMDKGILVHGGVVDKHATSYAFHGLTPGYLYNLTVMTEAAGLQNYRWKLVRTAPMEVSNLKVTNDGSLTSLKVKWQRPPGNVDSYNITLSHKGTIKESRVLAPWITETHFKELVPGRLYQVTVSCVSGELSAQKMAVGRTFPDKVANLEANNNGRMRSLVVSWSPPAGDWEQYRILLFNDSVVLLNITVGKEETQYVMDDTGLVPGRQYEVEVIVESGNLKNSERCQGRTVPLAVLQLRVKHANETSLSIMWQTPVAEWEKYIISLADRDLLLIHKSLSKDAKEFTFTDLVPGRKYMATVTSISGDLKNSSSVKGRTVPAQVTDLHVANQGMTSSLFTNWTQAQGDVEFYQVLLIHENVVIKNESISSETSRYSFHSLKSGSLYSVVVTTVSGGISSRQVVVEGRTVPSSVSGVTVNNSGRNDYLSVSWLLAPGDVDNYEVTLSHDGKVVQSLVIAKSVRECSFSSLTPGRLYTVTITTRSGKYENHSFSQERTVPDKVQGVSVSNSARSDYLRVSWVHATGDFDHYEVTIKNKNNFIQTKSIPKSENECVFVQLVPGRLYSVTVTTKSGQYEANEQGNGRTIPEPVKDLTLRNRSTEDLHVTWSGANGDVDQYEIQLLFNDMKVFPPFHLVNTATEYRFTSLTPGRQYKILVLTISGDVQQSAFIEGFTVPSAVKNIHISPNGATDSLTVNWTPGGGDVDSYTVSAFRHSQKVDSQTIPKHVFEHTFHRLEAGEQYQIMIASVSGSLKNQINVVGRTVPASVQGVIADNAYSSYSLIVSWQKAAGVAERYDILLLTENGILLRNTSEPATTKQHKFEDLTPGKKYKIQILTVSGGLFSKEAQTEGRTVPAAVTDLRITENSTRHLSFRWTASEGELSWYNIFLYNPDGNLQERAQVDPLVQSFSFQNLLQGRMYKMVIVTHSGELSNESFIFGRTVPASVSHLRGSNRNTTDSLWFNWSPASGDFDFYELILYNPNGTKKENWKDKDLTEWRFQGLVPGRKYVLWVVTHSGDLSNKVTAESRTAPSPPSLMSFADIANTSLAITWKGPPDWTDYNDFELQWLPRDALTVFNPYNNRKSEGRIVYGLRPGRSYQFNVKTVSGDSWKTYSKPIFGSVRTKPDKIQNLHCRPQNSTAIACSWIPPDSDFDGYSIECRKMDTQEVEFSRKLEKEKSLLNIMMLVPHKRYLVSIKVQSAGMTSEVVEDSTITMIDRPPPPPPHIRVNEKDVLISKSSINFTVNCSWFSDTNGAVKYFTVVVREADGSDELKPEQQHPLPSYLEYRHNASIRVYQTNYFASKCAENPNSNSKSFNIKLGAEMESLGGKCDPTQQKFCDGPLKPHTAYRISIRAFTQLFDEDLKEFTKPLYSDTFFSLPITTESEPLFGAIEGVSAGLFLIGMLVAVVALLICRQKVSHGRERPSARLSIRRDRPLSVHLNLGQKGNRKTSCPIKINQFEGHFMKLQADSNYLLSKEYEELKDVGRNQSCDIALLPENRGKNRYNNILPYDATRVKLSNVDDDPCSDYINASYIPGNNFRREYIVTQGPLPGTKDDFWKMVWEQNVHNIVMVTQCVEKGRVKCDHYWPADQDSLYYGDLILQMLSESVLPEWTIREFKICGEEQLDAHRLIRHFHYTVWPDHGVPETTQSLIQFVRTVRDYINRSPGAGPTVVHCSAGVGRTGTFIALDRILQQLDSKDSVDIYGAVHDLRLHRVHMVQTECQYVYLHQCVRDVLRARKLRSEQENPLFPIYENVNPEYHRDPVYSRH
A short description of assay [8]: Inhibition of Yersinia Tyrosine-protein phosphatase yopH. More on the design: species or system Yersinia sp.

The IC50 is the concentration at which inhibition is half-maximal. High values mean lower potency, low ones higher potency.

As for `O=C(O)c1ccc(CN2C(=O)S/C(=C\c3cccc(Oc4ccccc4)c3)C2=O)cc1`, the half-maximal inhibitory concentration (IC50) is 18 µM in assay [1], 37 µM in assay [2], 130 µM in assay [3] and 483 µM in assay [4].
Take `O=C(O)c1ccc(CN2C(=O)S/C(=C\c3ccc(OCc4ccccc4)cc3)C2=O)cc1`: the IC50 in assay [1] amounted to 1.6 µM; in assay [2], 2.5 µM; in assay [5], 1.3 µM; in assay [6], 27 µM; in assay [7], 0.4 µM; in assay [3] it was 5.6 µM. Besides, the results for the IC50 in assay [4] and in assay [8] were 15 µM and 0.3 µM, respectively.
Take `O=C(O)c1ccc(CN2C(=O)S/C(=C\c3cccc(OCc4ccccc4)c3)C2=O)cc1`: the 50% inhibitory concentration (IC50) in assay [1] worked out at 1.1 µM; in assay [2], 7.1 µM; in assay [3], 18.4 µM; in assay [4], 19.7 µM.
In the case of `O=C(O)c1ccc(CN2C(=O)S/C(=C\c3ccc4ccccc4c3)C2=O)cc1`, the IC50 in assay [1] is 6.5 µM; in assay [2], 12 µM; in assay [3] it was 92 µM; in assay [4] it was 149 µM.
As for `COc1cc(/C=C2\SC(=O)N(Cc3ccc(C(=O)O)cc3)C2=O)ccc1O`, the IC50 in assay [1] is 2.6 µM; in assay [2] it was 9.1 µM; in assay [3], 26.6 µM; in assay [4], 389 µM.
Consider `O=C(O)c1ccc(CN2C(=O)S/C(=C\c3cccc(O)c3)C2=O)cc1`, for which the half-maximal inhibitory concentration (IC50) turned out to be 10.2 µM in assay [1], 85.7 µM in assay [2], 112 µM in assay [3] and 1390 µM in assay [4].
As for `O=C(O)c1ccc(CN2C(=O)S/C(=C\c3cccc4ccccc34)C2=O)cc1`, the concentration for half-maximal inhibition (IC50) is 5.5 µM in assay [1], 122 µM in assay [2], 138 µM in assay [3] and 99 µM in assay [4].
Take `O=C(O)COc1ccc(/C=C2\SC(=O)N(Cc3ccc(C(=O)O)cc3)C2=O)cc1`: the IC50 in assay [1] was 85 µM; in assay [2] it was 219 µM; in assay [3], 1640 µM; in assay [4], greater than 450 µM.
`O=C(O)c1ccc(CN2C(=O)S/C(=C\c3ccc(Oc4ccccc4)cc3)C2=O)cc1`: the concentration for half-maximal inhibition (IC50) is 2.8 µM in assay [1]; 0.9 µM in assay [2]; 2.8 µM in assay [5]; 1.1 µM in assay [7]; 13 µM in assay [3]; 34 µM in assay [4]. In addition, the concentration for half-maximal inhibition (IC50) in assay [8] amounted to 1 µM.
On to `O=C(O)c1ccc(CN2C(=O)S/C(=C\c3ccc(O)cc3)C2=O)cc1`, for which the IC50 in assay [1] worked out at 10 µM; in assay [2], 30 µM; in assay [3], 85 µM; in assay [4], 188 µM.

The record behind these values is ChEMBL document CHEMBL1149603, “5-Arylidene-2,4-thiazolidinediones as inhibitors of protein tyrosine phosphatases” (Bioorg Med Chem, 2007).
